Tests used:
VEGF receptor 3 = target: T1, VEGF receptor 3 (Homo sapiens, UniProt P35916); assay: KIRA-ELISA assay (VEGFR3 phosphotyrosine after VEGF-C stimulation); type: cell-based; conditions: NCI-H928, H928 cells stimulated by recombinant VEGF-C, read-out: inhibition percentage
T1 construct: lyse the cells and solubilize the VEGFR3; endogenous in cells; host or cells: H928 cells
Experimental: This assay was performed in two microtiter plates. The first plate was used to culture an adherent cell line expressing the VEGF receptor 3 and to stimulate the receptor with a test compound. The second plate was used to capture the solubilized membrane receptor, which was then probed for phosphotyrosine content with phosphotyrosine-specific antibody.
Specifically, H928 cells (2×10^5) in 100 μl medium were added to each well in a flat-bottom 24-well culture plate and cultured overnight at 37° C. in 5% CO2. After the supernatants were removed, the cells were serum-starved for 24 hours. A medium containing a test compound was added into each well and the cell culture was incubated for 30 minutes before it was stimulated by recombinant VEGF-C for 15 minutes. After the supernatants were removed, 100 μl of a lysis buffer were added into each well to lyse the cells and solubilize the VEGFR3. […] The absorbance at 450 nm and the absorbance at a reference wavelength of 650 nm (A450/650) were measured using an ELISA reader.
The inhibition efficacy of each test compound is expressed as an inhibition percentage calculated according to the following formula: 1−[(C−A)/(B−A)]. In this formula, A is the basal amount of phosphotyrosine detected in a blank control, B is the amount of phosphotyrosine detected with VEGF-C only, and C is the amount of phosphotyrosine detected with a test compound and VEGF-C.

4T1^LUC+ cells [1] = assay: Effects on tumor recurrence and survival rate; type: in vivo, BALB/c mice; conditions: 50 mg/kg i.p. once daily; for overall survival life span: compared with vehicle group, FIG. 4; for luminescent signal intensity after tumor resection (tumor recurrence): sustain treatment vs stop treatment, FIG. 3
Experimental: 4T1^LUC+ cells obtained by the method described in Example 188 were implanted into the right inguinal mammary fat pads of 6 to 8-week old female BALB/c mice (1×10^5 cells in 100 μL PBS/mouse). After 14 days of tumor cell implantation, a single dose of 50 mg/kg body weight of a test compound or vehicle (PBS) was administered intraperitoneally once daily for three weeks. Compounds 2, 56, and 91 were tested in this assay. Sorafenib (Nexavar®) and sunitinib (Sutent®) were also used as reference compounds.
At the end of three-week treatment, the orthotopically grown tumors were surgically removed from the six groups of mice (i.e., 5 groups each treated with a test compound and 1 vehicle group). Then each of the six groups (i.e., 5 groups each treated with a test compound and 1 vehicle group) were divided into two subgroups, one with no further drug treatment (denoted as “stop treatment” in FIG. 3) and the other with continued drug treatment for 35 days (denoted as the “sustain treatment” in FIG. 3).
Bioluminescent data were collected in a manner similar to that described in Example 189 above at the end of day 35 after tumor resection.

4T1^LUC+ cells [2] = assay: In vivo assay on inhibiting spontaneous metastasis; set-up: species or system BALB/c mice; conditions: 50 mg/kg i.p. once daily; for luminescent signal intensity (metastatic tumor burden): end of the fourth week after compound treatment (sixth week after implantation), FIG. 2
Experimental: To investigate the effect of test compounds on distant spontaneous metastasis generated by the tumor cells, 4T1^LUC+ cells obtained by the method described in Example 188 were implanted into the right inguinal mammary fat pads of 6-week old BALB/c mice (1×10^5 cells in 100 μL PBS/mouse). After 14 days of tumor cell implantation, a single dose of 50 mg/kg body weight of a test compound or vehicle was administered intraperitoneally once daily. Compounds 2, 56, and 91 were used in this assay. Sorafenib (Nexavar®) and sunitinib (Sutent®) were also used as reference compounds.
A total of 36 mice, six for each of the six groups (i.e., 5 groups treated with test compounds and 1 vehicle group), were imaged once weekly for a period of 6 weeks after tumor cell implantation via bioluminescence imaging.
In vivo bioluminescence imaging was conducted on a cryogenically cooled IVIS™ system (Xenogen Corp., Alameda, Calif.) coupled to a data-acquisition PC running Living Image version 3.1 software (Xenogen Corp.). Before imaging, animals were anesthetized in a plastic chamber filled with 2% isofluorane/air mixture and 150 mg/mL of luciferin (potassium salt, Xenogen Corp.) and normal saline was injected (i.p.) into each mouse at a dose of 150 mg/kg body weight. This dose and route of administration has been previously shown to be optimal for studies in rodents when images were acquired between 10 and 20 minutes post-luciferin administration (Contag C H et al. 1997 Photochem Photobiol.; 66:523-531). During image acquisition, isofluorane anesthesia was maintained using a nose cone delivery system and animal body temperature was regulated using a digitally thermostated bed integrated within the IVIS™ system (Xenogen Corp., Alameda, Calif.). A gray scale body surface image was collected in the chamber under dim illumination, followed by acquisition and overlay of the pseudocolor image representing the spatial distribution of detected photon counts emerging from active luciferase within the animal. An integration time of 1 minute was used for luminescent image acquisition.
The average of the in vivo bioluminescence intensities measured on the 14th day post tumor cell implantation but before treatment with test compounds severed as a baseline, corresponding to the metastatic tumor burden of the vehicle group, as shown in FIG. 2.

[3] = test system: 4T1^LUC+ cells (murine 4T1 breast cancer); assay: In vivo assay on tumor growth inhibition; set-up: species or system BALB/c mice
Experimental: Compounds were tested for their efficacy in inhibiting tumor growth on murine tumor xenografts.
Murine 4T1 breast cancer cells (purchased from the American Type Culture Collection) were cultured to sub confluence in RPMI medium supplemented with 10% fetal bovine serum (GIBCO Invitrogen Corp.) at 37° C., 90% humidity and 5% CO2. The 4T1^LUC+ cells were established by the stable transfection of the firefly luciferase gene (pGL3-control, Promega Corporation) to 4T1 cells using LipofectAMINE PLUS Reagent (Life Technologies, Inc., Grand Island, N.Y.) for quantitative assessment of tumor burden in visceral organs. pcDNA3 vector (Invitrogen Co., Carlsbad, Calif.) was cotransfected for the selection by G418 (Sigma). The resulting 4T1^LUC+ colonies were isolated and cultured independently and the best expressing lines were identified based on the level of bioluminescent activity in the presence of luciferin in living cells. Highly bioluminescent clone was selected for further studies. […]
The length (i.e., the biggest diameter) and width (i.e., the smallest diameter) of the tumor was measured every 3.5 days by using a Vernier caliper. The tumor volume was then calculated as follows: volume=A×B^2×0.52, where A is the length of the tumor and B is the width of the tumor.

[4] = test system: 4T1 cells / 4T1^luc+ cells; assay: Effects on tumor self-seeding; type: in vivo, BALB/c mice; conditions: 50 mg/kg orally once daily
Experimental: Unlabeled parental 4T1 cells were implanted into a mammary gland of 6 to 8-week old female BALB/c mice (1×10^5 cells in 100 μL PBS/mouse). After 14 days of tumor cell implantation, a single dose of 50 mg/kg body weight of a test compound or vehicle (PBS) was administered orally once daily for 2 days. Compound 56 was tested in this assay. Sunitinib (Sutent®) was used as a reference compound. Then 4T1^luc+ cells (1×10^5 cells in 100 μL PBS/mouse) were injected into the circulatory system of the mice by intracardiac injection. The mice were then administered orally with a single dose of 50 mg/kg body weight of a test compound or vehicle (PBS) once daily for 2 days.
Bioluminescent data were collected in a manner similar to that described in Example 189 above.

T1 sequence (P35916 25-1363): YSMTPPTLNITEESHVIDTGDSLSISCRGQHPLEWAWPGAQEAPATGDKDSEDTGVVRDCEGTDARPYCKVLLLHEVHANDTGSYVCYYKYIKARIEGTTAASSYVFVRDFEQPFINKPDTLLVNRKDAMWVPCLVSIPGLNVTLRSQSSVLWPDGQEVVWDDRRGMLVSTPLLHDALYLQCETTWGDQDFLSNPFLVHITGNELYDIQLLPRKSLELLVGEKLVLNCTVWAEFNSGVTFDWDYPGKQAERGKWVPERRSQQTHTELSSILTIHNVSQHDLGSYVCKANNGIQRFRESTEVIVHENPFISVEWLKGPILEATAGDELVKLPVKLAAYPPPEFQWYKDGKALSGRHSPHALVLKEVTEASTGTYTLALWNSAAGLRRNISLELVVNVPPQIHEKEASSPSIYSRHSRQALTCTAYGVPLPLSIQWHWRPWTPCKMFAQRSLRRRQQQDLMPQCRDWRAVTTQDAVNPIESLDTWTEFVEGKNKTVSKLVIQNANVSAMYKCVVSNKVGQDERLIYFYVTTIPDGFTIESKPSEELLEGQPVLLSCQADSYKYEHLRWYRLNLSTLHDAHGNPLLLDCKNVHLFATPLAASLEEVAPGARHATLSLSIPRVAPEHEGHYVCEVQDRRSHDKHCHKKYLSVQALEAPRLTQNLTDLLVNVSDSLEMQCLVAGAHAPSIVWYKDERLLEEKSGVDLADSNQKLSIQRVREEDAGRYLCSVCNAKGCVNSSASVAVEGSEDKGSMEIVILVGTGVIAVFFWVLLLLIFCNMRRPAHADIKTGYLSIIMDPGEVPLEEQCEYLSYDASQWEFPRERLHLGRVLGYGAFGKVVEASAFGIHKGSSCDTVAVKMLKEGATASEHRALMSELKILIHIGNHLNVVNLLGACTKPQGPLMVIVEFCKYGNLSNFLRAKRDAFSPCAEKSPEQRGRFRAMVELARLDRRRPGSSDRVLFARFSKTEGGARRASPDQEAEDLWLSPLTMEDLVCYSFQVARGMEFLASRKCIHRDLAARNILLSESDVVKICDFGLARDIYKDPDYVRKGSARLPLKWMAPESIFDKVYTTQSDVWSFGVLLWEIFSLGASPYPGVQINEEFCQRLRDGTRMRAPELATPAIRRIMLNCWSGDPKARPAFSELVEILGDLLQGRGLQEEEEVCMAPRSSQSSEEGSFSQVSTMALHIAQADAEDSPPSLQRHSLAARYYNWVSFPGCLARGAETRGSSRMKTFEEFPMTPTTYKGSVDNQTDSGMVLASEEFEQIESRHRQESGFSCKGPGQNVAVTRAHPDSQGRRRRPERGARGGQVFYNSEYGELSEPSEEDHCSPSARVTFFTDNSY

Structure (SMILES) | inhibition at 1 µM (VEGF receptor 3) [%] | overall survival life span (4T1^LUC+ cells [1]) | luminescent signal intensity after tumor resection (tumor recurrence) (4T1^LUC+ cells [1]; day 35 after tumor resection) | inhibition of spontaneous metastasis compared with Sorafenib and sunitinib (4T1^LUC+ cells [2]) | luminescent signal intensity (metastatic tumor burden) (4T1^LUC+ cells [2]) | tumor growth inhibition (tumor volume) ([3]; 50 mg/kg intraperitoneally once daily from day 14 after implantation, FIG. 1) | survival rate ([3]; 50 mg/kg intraperitoneally once daily, compared with Sorafenib-treated mice) | tumor recurrence reduction compared with sunitinib (4T1^LUC+ cells [1]; day 35 after tumor resection) | ability in inhibiting tumor self-seeding compared with Sutent [4] | bioluminescence from the thoracic cavity ([4]; day 7 post the second 2-day drug treatment, compared with vehicle group, FIGS. 5A and 5B) | bioluminescence from the abdominal cavity compared with Sutent-treated group ([4]; day 14 post the second 2-day drug treatment) | bioluminescence from the abdominal cavity ([4]; day 14 post the second 2-day drug treatment, compared with vehicle group)
COC(=O)c1ccc2c(c1)nc(-c1ccc3cn(CCC(c4ccccc4)c4ccccc4)nc3c1)n2CCC1=CCCCC1 [Compound 2] | ~65 | increased the overall survival life span of the treated mice as compared with those in the vehicle group | lower luminescent signal intensity as compared with the corresponding group without continuous treatment | comparable or superior to the commercial drugs | significant lower luminescent signal intensity as compared with the vehicle group | – | – | – | – | – | – | –
CCCCc1nc2cccc(-c3nc4cc(C(=O)OC)ccc4n3CC(C)C)c2n1CCCC [Compound 56] | – | increased the overall survival life span of the treated mice as compared with those in the vehicle group | lower luminescent signal intensity as compared with the corresponding group without continuous treatment | comparable or superior to the commercial drugs | did not exhibit any detectable luminescent signal | inhibited tumor growth almost as effectively as Sutent and Sorafenib | higher survival rate than those treated with Sorafenib | reduced tumor recurrence to a degree comparable to that of sunitinib | comparable or even superior ability in inhibiting tumor self-seeding to that of Sutent | much weaker bioluminescence from the thoracic cavity | weaker bioluminescence form the abdominal cavity | much weaker bioluminescence form the abdominal cavity
CCCCc1nc2cccc(-c3nc4cc(C(=O)O)ccc4n3CC(C)C)c2n1CCCC [Compound 91] | – | increased the overall survival life span of the treated mice as compared with those in the vehicle group | lower luminescent signal intensity as compared with the corresponding group without continuous treatment | comparable or superior to the commercial drugs | significant lower luminescent signal intensity as compared with the vehicle group | – | – | – | – | – | – | –
